Laboratory results from patent US20240246979A1, “cGAS INHIBITORS” (Eli Lilly and Company, priority 2022, published 2024).

How the values were obtained:
cGAS [1] = target: T1, cGAS (Homo sapiens, UniProt Q8N884); assay: Cellular assay to measure cGAS activity (IFNb AlphaLISA in THP1 cells stimulated by RDG-Adenovirus-GFP); type: cell-based; set-up: host or cells: THP1 cells differentiated with PMA and stimulated with RDG-Adenovirus-GFP; settings: PMA-differentiated THP1 cells, RDG-Adenovirus-GFP at 1000 MOI; inhibition of IFNb production as marker for cGAS activity
In short: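 PMA-differentiated THP1 cells were infected with RDG-Adenovirus-GFP at 1000 MOI for 4 h, then exposed overnight to test compounds. IFNb in the supernatant was quantified by AlphaLISA as a cGAS activity marker, and IC50 was fitted with a 4-parameter logistic equation.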

cGAS [2] = target: T1, cGAS; assay: In vitro inhibition assay of cGAS activity (cGAMP production, RapidFire mass spectrometry); type: biochemical; set-up: Insert cDNA encoding full-length of human cGAS; His6; made in house; host or cells: E. coli BL21(DE3); settings: 10 nM recombinant human cGAS, 60 nM 75-bp dsDNA, 50 μM ATP, 50 μM GTP, 3 hrs
In short: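 His6-tagged full-length human cGAS (10 nM, E. coli-expressed) was incubated for 3 hrs at ambient temperature with 60 nM 75-bp dsDNA, 50 μM ATP and 50 μM GTP in Tris pH 7.5/MgCl2 buffer with compound dilutions. cGAMP was quantified by RapidFire mass spectrometry against an internal standard, and IC50 was obtained by 4-parameter logistic fit.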

T1 sequence (Q8N884 whole entry): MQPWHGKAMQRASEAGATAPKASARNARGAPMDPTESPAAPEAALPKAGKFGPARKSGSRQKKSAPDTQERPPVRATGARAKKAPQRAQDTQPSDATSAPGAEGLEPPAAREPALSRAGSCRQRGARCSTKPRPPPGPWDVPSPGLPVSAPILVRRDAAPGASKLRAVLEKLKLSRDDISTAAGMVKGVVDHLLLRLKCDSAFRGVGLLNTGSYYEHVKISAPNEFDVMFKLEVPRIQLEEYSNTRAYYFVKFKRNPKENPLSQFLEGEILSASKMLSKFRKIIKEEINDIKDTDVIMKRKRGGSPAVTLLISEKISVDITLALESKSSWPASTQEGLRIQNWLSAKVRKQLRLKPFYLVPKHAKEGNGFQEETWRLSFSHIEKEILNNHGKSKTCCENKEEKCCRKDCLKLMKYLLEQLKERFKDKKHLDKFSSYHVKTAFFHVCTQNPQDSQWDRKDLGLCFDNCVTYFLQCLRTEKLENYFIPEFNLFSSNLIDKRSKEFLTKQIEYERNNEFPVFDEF

Work on Cn1ncc(-c2cc(Cl)c(F)c3[nH]c4c(c23)CC(=O)NCC4)n1 [Example 1, 8-Chloro-7-fluoro-10-(2-methyl-2H-1,2,3-triazol-4-yl)-3,4,5,6-tetrahydroazepino[4,5-b]indol-2(1H)-one] yielded an IC50 (cGAS [1]) of 2640 nM and an IC50 (cGAS [2]) of 33.4 nM.
CC1C(=O)NCCc2[nH]c3c(Cl)c(Cl)cc(NC4COC4)c3c21 (racemic) [Example 60, 7,8-Dichloro-1-methyl-10-(oxetan-3-ylamino)-3,4,5,6-tetrahydroazepino[4,5-b]indol-2(1H)-one] was tested, and the IC50 (cGAS [1]) was 974 nM and the IC50 (cGAS [2]) was 53.3 nM.
Compound COCC[C@@H]1CNC(=O)Cc2c1[nH]c1c(Cl)c(Cl)cc(-c3cnn(C)n3)c21 (single isomer, unassigned) [Example 167] has an IC50 (cGAS [1]) of 624 nM and an IC50 (cGAS [2]) of 12.8 nM.
Work on CC1Cc2[nH]c3c(Cl)c(Cl)cc(NCCO)c3c2CC(=O)N1 (stereo not drawn) [Example 165, 7,8-Dichloro-10-((2-hydroxyethyl)amino)-4-methyl-3,4,5,6-tetrahydroazepino[4,5-b]indol-2(1H)-one] yielded an IC50 (cGAS [1]) of 1730 nM and an IC50 (cGAS [2]) of 44.2 nM.
Work on Cn1c2c(c3c(CC#N)cc(Cl)c(Cl)c31)CC(=O)NC[C@H]2CCO (single isomer, unassigned) [Example 123] yielded an IC50 (cGAS [1]) of 181 nM and an IC50 (cGAS [2]) of 14.1 nM.
For C[C@H]1C(=O)NCCc2[nH]c3c(Cl)c(Cl)cc(N[C@@H]4CCOC4)c3c21 (single isomer, unassigned) [Example 65], the IC50 (cGAS [1]) was no less than 10000 nM and the IC50 (cGAS [2]) was 890 nM.
Work on C[C@H](O)C(=O)Nc1cc(Cl)c(Cl)c2[nH]c3c(c12)[C@@H](C)C(=O)NCC3 (single isomer, unassigned) [Example 42] yielded an IC50 (cGAS [1]) greater than 10000 nM and an IC50 (cGAS [2]) of 6440 nM.
CC1C(=O)NCCc2[nH]c3c(Cl)c(Cl)cc(NCCO)c3c21 (racemic) [Example 49, 7,8-Dichloro-10-((2-hydroxyethyl)amino)-1-methyl-3,4,5,6-tetrahydroazepino[4,5-b]indol-2(1H)-one] was tested, and the IC50 (cGAS [1]) was 390 nM and the IC50 (cGAS [2]) was 15 nM.
For C[C@@H]1CNC(=O)[C@@H](C)c2c1[nH]c1c(Cl)c(Cl)cc(NCCO)c21 (single isomer, unassigned) [Example 157], the IC50 (cGAS [1]) was greater than 10000 nM and the IC50 (cGAS [2]) was 6680 nM.
For O=C1Cc2c([nH]c3c(Cl)c(Cl)cc(-c4nc(CO)no4)c23)CCN1 [Example 26, 7,8-Dichloro-10-(3-(hydroxymethyl)-1,2,4-oxadiazol-5-yl)-3,4,5,6-tetrahydroazepino[4,5-b]indol-2(1H)-one], the IC50 (cGAS [1]) was greater than 10000 nM and the IC50 (cGAS [2]) was 133 nM.
For COCCNc1cc(Cl)c(Cl)c2c1c1c(n2C)CCNC(=O)C1C (stereo not drawn) [Example 96, 7,8-Dichloro-10-((2-methoxyethyl)amino)-1,6-dimethyl-3,4,5,6-tetrahydroazepino[4,5-b]indol-2(1H)-one], the IC50 (cGAS [1]) was greater than 10000 nM and the IC50 (cGAS [2]) was 18.6 nM.
Work on C[C@@H]1C(=O)NCCc2[nH]c3c(Cl)c(Cl)cc(OCC(N)=O)c3c21 (single isomer, unassigned) [Example 17A] yielded an IC50 (cGAS [1]) of 856 nM and an IC50 (cGAS [2]) of 22.4 nM.
CC1C(=O)NCCc2[nH]c3c(Cl)c(Cl)cc(-c4cnn(C)n4)c3c21 (stereo not drawn) [Example 9, 7,8-Dichloro-1-methyl-10-(2-methyl-2H-1,2,3-triazol-4-yl)-3,4,5,6-tetrahydroazepino[4,5-b]indol-2(1H)-one] showed an IC50 (cGAS [1]) of 2160 nM and an IC50 (cGAS [2]) of 87 nM.
C[C@H]1C(=O)NCC(C)(C)c2c1c1c(NC(=O)CO)cc(Cl)c(Cl)c1n2C (single isomer, unassigned) [Example 134, (R)—N-(7,8-Dichloro-1,5,5,6-tetramethyl-2-oxo-1,2,3,4,5,6-hexahydroazepino[4,5-b]indol-10-yl)-2-hydroxyacetamide or (S)—N-(7,8-Dichloro-1,5,5,6-tetramethyl-2-oxo-1,2,3,4,5,6-hexahydroazepino[4,5-b]indol-10-yl)-2-hydroxyacetamide] showed an IC50 (cGAS [1]) of 787 nM and an IC50 (cGAS [2]) of 17.5 nM.
For C[C@@H](O)CNc1cc(Cl)c(Cl)c2[nH]c3c(c12)[C@@H](C)C(=O)NCC3 (single isomer, unassigned) [Example 56], the IC50 (cGAS [1]) was 6230 nM and the IC50 (cGAS [2]) was 3560 nM.
With CC(O)CC1CNC(=O)Cc2c1[nH]c1c(Cl)c(Cl)cc(-c3cnn(C)n3)c21 (stereo not drawn) [Example 119, 7,8-Dichloro-5-(2-hydroxypropyl)-10-(2-methyl-2H-1,2,3-triazol-4-yl)-3,4,5,6-tetrahydroazepino[4,5-b]indol-2(1H)-one] the IC50 (cGAS [1]) was 487 nM and the IC50 (cGAS [2]) was 23.2 nM.
C[C@H](O)C(=O)Nc1cc(Cl)c(Cl)c2c1c1c(n2C(F)F)CCNC(=O)[C@H]1C (single isomer, unassigned) [Example 142] showed an IC50 (cGAS [1]) of 293 nM and an IC50 (cGAS [2]) of 29.6 nM.
C[C@H]1C(=O)NCC(C)(C)c2[nH]c3c(Cl)c(Cl)cc(NC(=O)CO)c3c21 (single isomer, unassigned) [Example 132] was tested, and the IC50 (cGAS [1]) was greater than 10000 nM and the IC50 (cGAS [2]) was no less than 39800 nM.
